Numbered stars: 1 amine (or outer) side, 2 acyl side, 3 side chain; on linkers, the order of the positions; unused ones are H or OH. Bridge positions count the residues as written; N and C are the ends. Peptide text beside a SMILES is read from it. * marks the point of attachment. Suberoyl(Gly)2 = O=C(CCCCCCC(=O)NCC(=O)[*:2])NCC(=O)[*:1]; Suberoyl = O=C(CCCCCCC(=O)[*:2])[*:1]; Myristoyl = CCCCCCCCCCCCCC(=O)*; Suc = O=C(CCC(=O)[*:2])[*:1]
Experiments:
[1] = target: T1, human recombinant His6-SIRT1 or GST-SIRT1 (Homo sapiens, UniProt Q96EB6); assay: HPLC-based sirtuin deacylation activity assay, SIRT1; format: biochemical; details: substrate activity with SIRT1; 50 mM Hepes pH 8.0, 0.5 mM β-NAD+, SIRT1 243 nM, 37 °C, 5 min, HPLC 214 nm, Michaelis-Menten fit
T1 construct: His6 or GST (two alternative purchased preparations, not both on one protein); purchased Sigma-Aldrich China (His6-SIRT1); Cayman Chemical (GST-SIRT1)
T1 sequence (Q96EB6 1-747): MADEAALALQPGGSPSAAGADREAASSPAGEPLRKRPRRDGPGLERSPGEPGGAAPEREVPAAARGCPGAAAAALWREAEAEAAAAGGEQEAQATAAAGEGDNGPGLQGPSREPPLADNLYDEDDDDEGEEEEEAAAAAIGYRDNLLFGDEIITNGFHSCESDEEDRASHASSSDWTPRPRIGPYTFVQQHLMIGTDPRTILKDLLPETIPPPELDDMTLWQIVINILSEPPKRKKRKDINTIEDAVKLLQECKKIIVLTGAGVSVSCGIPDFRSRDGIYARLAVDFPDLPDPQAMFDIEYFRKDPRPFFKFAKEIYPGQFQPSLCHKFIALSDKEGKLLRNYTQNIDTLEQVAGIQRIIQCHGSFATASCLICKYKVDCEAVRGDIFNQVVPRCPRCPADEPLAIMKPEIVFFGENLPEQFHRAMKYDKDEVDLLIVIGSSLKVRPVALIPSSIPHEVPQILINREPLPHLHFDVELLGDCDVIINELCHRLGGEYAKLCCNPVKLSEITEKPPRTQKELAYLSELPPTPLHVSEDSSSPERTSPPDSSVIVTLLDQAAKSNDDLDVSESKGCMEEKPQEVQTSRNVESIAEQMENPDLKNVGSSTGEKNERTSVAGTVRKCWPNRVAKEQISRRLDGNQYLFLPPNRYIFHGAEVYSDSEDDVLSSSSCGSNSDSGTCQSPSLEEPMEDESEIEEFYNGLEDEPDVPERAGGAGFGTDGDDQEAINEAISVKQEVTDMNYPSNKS
Experimental: The steady-state kinetic parameters (kcat and KM) for the SIRT1/2/3 substrate activities of the purified 5–8 were determined with a HPLC-based sirtuin deacylation activity assay and are recorded in Table 2 and Table 3. As judged by kcat/KM ratios, cyclic peptides 5–8 were all found to be excellent SIRT1 substrates, actually 5, 7, and 8 are all better SIRT1 substrates than the linear hexapeptide-based SIRT1 substrate 3 (depicted in Figure 2) reported in the current literature (kcat/KM = 800 M^−1 s^−1). Cyclic peptides 5–8 were also all found to be better SIRT3 substrates than the linear hexapeptide-based SIRT3 substrate 3 reported in the current literature (kcat/KM = 990 M^−1·s^−1).
The following materials were obtained from commercial sources for the in vitro sirtuin deacylation activity assay and the pronase digestion assay, and were used as received. Sigma-Aldrich China: the active human recombinant His6-SIRT1, Trizma, Hepes, β-NAD^+, a 1.0 M solution of MgCl2 (molecular-biology grade), the pronase from Streptomyces griseus; Cayman Chemical (Ann Arbor, MI, USA): the active human recombinant GST-SIRT1, the active human recombinant His6-SIRT2, the active human recombinant His6-SIRT3; TCI Shanghai: DL-dithiothreitol (DTT); Alfa Aesar China: NaCl, KCl.
A sirtuin deacylation assay solution contained the following: 50 mM Hepes (pH 8.0), 137 mM NaCl, 2.7 mM KCl, 1 mM MgCl2, 1 mM DTT, β-NAD^+ (~5.6 × KM: 0.5 mM for the SIRT1 and SIRT2 assays, 3.5 mM for the SIRT3 assay), one test compound (5, 6, 7, or 8) with varied concentrations including 0, and a sirtuin (His6-SIRT1 or GST-SIRT1, 243 nM; His6-SIRT2, 297 nM; or His6-SIRT3, 739 nM). An enzymatic reaction was initiated by the addition of a sirtuin at 37 °C and was incubated at 37 °C for 5 min (for the SIRT1 assay) or 2 min (for the SIRT2 and SIRT3 assays) until quenched with the following stop solution: 100 mM HCl and 0.16 M acetic acid. The quenched assay solutions were directly injected into a C18 column (0.46 × 25 cm, 5 μm), and the column was eluted with a gradient of ddH2O containing 0.05% (v/v) TFA and acetonitrile containing 0.05% (v/v) TFA at 1 mL/min and was monitored at 214 nm. Turnover of the limiting substrate was kept at <10%. Stock solutions of the test compounds were all prepared in ddH2O. The integrated product and substrate HPLC peak areas were then used to determine the initial velocities for the sirtuin-catalyzed deacylation reaction at different concentrations of a test compound (5, 6, 7, or 8). The initial velocity-concentration data were analyzed with KaleidaGraph® (Synergy Software, Reading, PA, USA) and the data were fitted to the Michaelis-Menten equation to obtain the kinetic parameters kcat and KM, as recorded in Table 2 and Table 3.

His6-SIRT3, 739 nM = assay: 50 mM Hepes (pH 8.0), 137 mM NaCl, 2.7 mM KCl, 1 mM MgCl2, 1 mM DTT, β-NAD^+ 3.5 mM; details: human, 37 °C, up to 2 min
His6-SIRT2, 297 nM = assay: 50 mM Hepes (pH 8.0), 137 mM NaCl, 2.7 mM KCl, 1 mM MgCl2, 1 mM DTT, β-NAD^+ 0.5 mM; details: human, 37 °C, up to 2 min
[2] = test system: His6-SIRT1 or GST-SIRT1, 243 nM; assay: as above; details: human, 37 °C, up to 5 min
pronase = pronase solution in 100 mM Tris HCl (pH 7.3) (8 ng/µL); details: Streptomyces griseus, 37 °C, up to 60 min

| Compound | KM [1] | kcat [1] | cleaved bond (His6-SIRT3, 739 nM) | cleaved bond (His6-SIRT2, 297 nM) | cleaved bond [2] | fragment found (pronase) |
| --- | --- | --- | --- | --- | --- | --- |
| CSCC[C@H](NC(=O)[C@@H]1CCCCNC(=O)CCC(=O)NCCCC[C@H](NC(C)=O)C(=O)N[C@@H](CCCCN)C(=O)N[C@@H](CCCCNC(C)=O)C(=O)N1)C(N)=O [Compound 6] (Ac-KKK(Ac)KM-NH2; linker 1-4 via Suc) | 41.3 ± 1.83 µM | 25.9 ± 2.3 10^−3, s^−1 |  |  |  |  |
| CSCC[C@H](NC(=O)[C@@H]1CCCCNC(=O)CNC(=O)CCCCCCC(=O)NCC(=O)NCCCC[C@H](NC(C)=O)C(=O)N[C@@H](CCCCN)C(=O)N[C@@H](CCCCNC(C)=O)C(=O)N1)C(N)=O [Compound 5] (Ac-KKK(Ac)KM-NH2; linker 1-4 via Suberoyl(Gly)2) | 22.2 ± 1.8 µM | 35.6 ± 5.1 10^−3, s^−1 |  |  |  |  |
| CH3CONH-Lys-Lys-(N^ε-acetyl-Lysine)-Lys-Met-NH2, side chains of Lys1 and Lys4 bridged by succinyl (read from the drawn structure) |  |  | SIRT3-catalyzed deacylation of N^ε-acetyl-lysine | SIRT2-catalyzed deacylation of N^ε-acetyl-lysine | SIRT1-catalyzed deacylation of N^ε-acetyl-lysine |  |
| CCCCCCCCCCCCCC(=O)NCCCC[C@@H]1NC(=O)[C@H](CCCNC(=N)N)NC(=O)[C@@H](NC(C)=O)CCCCNC(=O)CCCCCCC(=O)NCCCC[C@@H](C(=O)N[C@H](C(N)=O)[C@@H](C)O)NC1=O [Compound 7] (Ac-KRK(Myristoyl)KT-NH2; linker 1-4 via Suberoyl) | 2.85 ± 0.13 µM | 5.8 ± 0.1 10^−3, s^−1 |  |  |  |  |
| CC(=O)NCCCC[C@@H]1NC(=O)[C@H](CCCCN)NC(=O)[C@@H](NC(C)=O)CCCCNC(=O)CNC(=O)CCCCCCC(=O)NCC(=O)NCCCC[C@@H](C(N)=O)NC1=O [Compound 8] (Ac-KKK(Ac)K-NH2; linker 1-4 via Suberoyl(Gly)2) | 42.2 ± 17.5 µM |  |  |  |  |  |
| CH3CONH-Lys-Lys-(N^ε-acetyl-Lysine)-Lys-NH2, side chains of Lys1 and Lys4 bridged by Gly-suberoyl-Gly (read from the drawn structure) |  |  | SIRT3-catalyzed deacylation of N^ε-acetyl-lysine | SIRT2-catalyzed deacylation of N^ε-acetyl-lysine | SIRT1-catalyzed deacylation of N^ε-acetyl-lysine |  |
| CH3CONH-Lys-Lys-(N^ε-acetyl-Lysine)-Lys-Met-NH2, side chains of Lys1 and Lys4 bridged by Gly-suberoyl-Gly (read from the drawn structure) |  |  | SIRT3-catalyzed deacylation of N^ε-acetyl-lysine | SIRT2-catalyzed deacylation of N^ε-acetyl-lysine | SIRT1-catalyzed deacylation of N^ε-acetyl-lysine | 5a |
| CH3CONH-Lys-Arg-(N^ε-myristoyl-Lysine)-Lys-Thr-NH2, side chains of Lys1 and Lys4 bridged by suberoyl (read from the drawn structure) |  |  | SIRT3-catalyzed deacylation of N^ε-myristoyl-lysine | SIRT2-catalyzed deacylation of N^ε-myristoyl-lysine | SIRT1-catalyzed deacylation of N^ε-myristoyl-lysine |  |

— article PMC6384901 (Molecules, 2019)
